{"source": "paper PMC7832358", "about": "“Trending Topics on Coumarin and Its Derivatives in 2020” (Molecules, 2021)", "origin": "cited, not measured here", "key": {"hA3 receptors": {"tested_on": "hA3 receptors", "parameters": "method as in PMID 31738058", "conditions": "antagonists"}, "Ebolavirus (EBOV)": {"tested_on": "Ebolavirus (EBOV)", "conditions": "read-out: IC50 against EBOV"}, "Marburg virus (MARV)": {"tested_on": "Marburg virus (MARV)", "conditions": "read-out: IC50 against MARV"}, "reserpinized mice": {"tested_on": "reserpinized mice", "conditions": "reserpinized mice pre-treated with levodopa and benserazide"}, "hMAO-B": {"tested_on": "hMAO-B", "conditions": "read-out: hMAO-B inhibition IC50"}, "[1]": {"parameters": "method as in PMID 31887477", "conditions": "inhibitor of thioredoxin reductases (TrxRs); read-out: antitumor activity IC50"}, "[2]": {"tested_on": "streptozotocin (STZ)-induced cognitive dysfunction in rats"}, "[3]": {"tested_on": "streptozotocin (STZ)-induced cognitive dysfunction in rats", "remark": "listed apart in the source"}, "tyrosinase": {"tested_on": "tyrosinase", "parameters": "method as in PMID 32652434"}, "B16F10 cells": {"tested_on": "B16F10 cells", "parameters": "method as in PMID 32574739"}, "xanthine oxidase": {"molecular_target": "xanthine oxidase", "parameters": "method as in PMID 32574739", "conditions": "read-out: xanthine oxidase inhibition IC50"}}, "data": [{"compound": "O=c1oc2c(O)cccc2cc1-c1ccc(Br)cc1", "note": "[compound XX]", "values": [{"measurement": "hA3 receptor affinity", "setting": "hA3 receptors", "result": "low nanomolar range"}]}, {"compound": "Cc1c(Cc2ccc(OC(F)(F)F)cc2)c(=O)oc2cc(OCC(O)CN3CCC(C(N)=O)CC3)ccc12", "note": "(stereo not shown) [compound XVI]", "values": [{"measurement": "IC50", "setting": "Ebolavirus (EBOV)", "result": 500, "unit": "nM"}, {"measurement": "IC50", "setting": "Marburg virus (MARV)", "result": 1200, "unit": "nM"}]}, {"compound": "O=c1oc2cc(O)ccc2cc1-c1cc(Br)cs1", "note": "[3-(4′-bromothiophen-2′-yl)-7-hydroxycoumarin]", "values": [{"measurement": "in vivo profile on locomotor activity (OFT) versus selegiline", "setting": "reserpinized mice", "result": "slightly better in vivo profile than selegiline"}, {"measurement": "IC50", "setting": "hMAO-B", "result": 140, "unit": "nM"}]}, {"compound": "CCN(CC)c1ccc2cc(/C=C/C(=O)c3ccc(OC)c(O)c3)c(=O)oc2c1", "note": "[compound V]", "values": [{"measurement": "IC50", "setting": "[1]", "result": 3600, "unit": "nM"}]}, {"compound": "COc1c2occc2cc2ccc(=O)oc12", "note": "[xanthotoxin]", "values": [{"measurement": "cognitive deficits in the Morris water maze and object recognition tests", "setting": "[2]", "result": "prevent cognitive deficits"}, {"measurement": "activity of hippocampal AChE", "setting": "[3]", "result": "reduced"}, {"measurement": "expression of NF-κB inhibitor (IκB-α)", "setting": "[3]", "result": "upregulating"}, {"measurement": "glutathione content", "setting": "[3]", "result": "increasing"}, {"measurement": "level of malondialdehyde", "setting": "[3]", "result": "reduced"}, {"measurement": "level of proinflammatory cytokines", "setting": "[3]", "result": "reducing"}]}, {"compound": "O=c1cc(OCc2cn(Cc3cocc(O)c3=O)nn2)c2ccccc2o1", "note": "[compound XXVI]", "values": [{"measurement": "tyrosinase inhibitory activity", "setting": "tyrosinase", "result": "sub-micromolar range"}]}, {"compound": "COc1ccc(-c2cc3cc([N+](=O)[O-])ccc3oc2=O)cc1", "note": "[3-(4-methoxyphenyl)-6-nitrocoumarin]", "values": [{"measurement": "cytotoxicity in B16F10 cells", "setting": "B16F10 cells", "result": "non-cytotoxic"}, {"measurement": "IC50", "setting": "xanthine oxidase", "result": 8400, "unit": "nM"}]}, {"compound": "O=c1ccc2ccc(O)cc2o1", "note": "[umbelliferone]", "values": [{"measurement": "cognitive deficits in the Morris water maze and object recognition tests", "setting": "[2]", "result": "prevent cognitive deficits"}, {"measurement": "activity of hippocampal AChE", "setting": "[3]", "result": "reduced"}, {"measurement": "expression of NF-κB inhibitor (IκB-α)", "setting": "[3]", "result": "upregulating"}, {"measurement": "glutathione content", "setting": "[3]", "result": "increasing"}, {"measurement": "level of malondialdehyde", "setting": "[3]", "result": "reduced"}, {"measurement": "level of proinflammatory cytokines", "setting": "[3]", "result": "reducing"}, {"measurement": "overexpression of inflammatory markers (nuclear factor κB and cyclooxygenase II)", "setting": "[3]", "result": "inhibiting"}]}]}
